Experimental data: PMC11172375, “Preclinical Evaluation of Biodistribution and Toxicity of [^211At]PSMA-5 in Mice and Primates for the Targeted Alpha Therapy against Prostate Cancer” (International Journal of Molecular Sciences, 2024)

Tests used:
[1] = Hematological examination in mice; format: in vivo, ICR mice; settings: for %Lymph / Hb / Ht / Platelet / RBC / WBC: mice
Description: (§1) [^211At]PSMA-5 was administered intravenously to 25 mice, and its biodistribution was evaluated. For the toxicity study, three doses of [^211At]PSMA-5 (5, 12, and 35 MBq/kg, single dose) or saline were intravenously administered to 10 mice/group for the main evaluation point on day 1, and 5-mice/group for recovery evaluation on day 14, adhering to the ICH M3 (R2) guidelines. The dosage was determined based on our previous study using [^211At]NaAt. The monkeys were monitored for 24 h post-administration of [^211At]PSMA-5 (9 MBq/kg).
(§2) A blood cell counter was used for the measurements (CB-1010; ARKRAY, Inc., Kyoto, Japan). Red blood cell count (RBC), hemoglobin concentration (Hb), hematocrit (Ht), white blood cell count (WBC), platelet count (platelet), lymphocytes (%Lymph), monocytes (%Mon), and granulocytes (%Gra) were calculated. Plasma was analyzed using a dry clinical chemistry analyzer (Spotchem D-00 QR D-02; ARKRAY, Inc., Kyoto, Japan). The levels of aspartate aminotransferase (AST), alanine aminotransferase (ALT), gamma-glutamyl transpeptidase (γ-GTP), lactate dehydrogenase (LDH), alkaline phosphatase (ALP), creatine kinase (CK), amylase (AMY), total bilirubin (TBIL), creatinine (CRE), urea nitrogen (BUN), glucose (GLU), total protein (TP), albumin (ALB), total cholesterol (TCHO), triglyceride (TG), and electrolytes (Na, K, and Cl) were measured.

[2] = Blood chemistry examination in mice; format: in vivo, ICR mice
Description: as §1, §2

## O=C(O)CC[C@H](NC(=O)N[C@@H](CCCCNC(=O)[C@@H](Cc1ccc2ccccc2c1)NC(=O)c1ccc(CNC(=O)[C@@H](CCC(=O)O)NC(=O)[C@@H](CCC(=O)O)NC(=O)Cc2ccc([211At])cc2)cc1)C(=O)O)C(=O)O [[^211At]PSMA-5]
[1]; mice, 5, 12 and 35 MBq/kg, day 1 or day 14
  blood examination versus control group: no significant difference
[1]; 5 MBq/kg i.v., day 1
  %Lymph: 66.3 ± 15.8%
  Hb: 12.9 ± 0.4 g/dL
  Ht: 42.5 ± 1.4%
  Platelet: 976 ± 524 10^3 cell/µL
  RBC: 7.8 ± 0.3 10^6 cell/µL
  WBC: 6.3 ± 4.1 10^3 cell/µL
[1]; 5 MBq/kg i.v., day 14
  %Lymph: 70 ± 8.8%
  Hb: 14.4 ± 0.4 g/dL
  Ht: 45.4 ± 1%
  Platelet: 1120 ± 555 10^3 cell/µL
  RBC: 8.7 ± 0.2 10^6 cell/µL
  WBC: 6.9 ± 3.3 10^3 cell/µL
[1]; 12 MBq/kg i.v., day 1
  %Lymph: 62.6 ± 14.2%
  Hb: 13.0 ± 0.8 g/dL
  Ht: 42.6 ± 2.3%
  Platelet: 1329 ± 845 10^3 cell/µL
  RBC: 8.0 ± 0.5 10^6 cell/µL
  WBC: 8.3 ± 4.9 10^3 cell/µL
[1]; 12 MBq/kg i.v., day 14
  %Lymph: 59.9 ± 12.1%
  Hb: 13.8 ± 0.9 g/dL
  Ht: 43.9 ± 3%
  Platelet: 922 ± 608 10^3 cell/µL
  RBC: 8.3 ± 0.6 10^6 cell/µL
  WBC: 6.9 ± 1.9 10^3 cell/µL
[1]; 35 MBq/kg i.v., day 1
  %Lymph: 53.5 ± 16.9%
  Hb: 12.8 ± 0.7 g/dL
  Ht: 42.3 ± 2%
  Platelet: 952 ± 444 10^3 cell/µL
  RBC: 7.9 ± 0.3 10^6 cell/µL
  WBC: 8.0 ± 5.2 10^3 cell/µL
[1]; 35 MBq/kg i.v., day 14
  %Lymph: 53.9 ± 6.4%
  Hb: 13.6 ± 0.7 g/dL
  Ht: 43.1 ± 2.4%
  Platelet: 1331 ± 1037 10^3 cell/µL
  RBC: 8.4 ± 0.4 10^6 cell/µL
  WBC: 5.4 ± 2.8 10^3 cell/µL
[2]; 5 MBq/kg i.v., day 1
  ALB: 2.3 ± 0.2 g/dL
  ALP: 194 ± 86 IU/L
  ALT: 41.2 ± 31.6 IU/L
  AMY: 2675 ± 562 IU/L
  AST: 43.8 ± 30.3 IU/L
  BUN: 22 ± 8.3 mg/dL
  CK: 180 ± 60 IU/L
  CRE: 0.2 ± 0 mg/dL
  GLU: 198 ± 70 mg/dL
  K: 4.5 ± 0.5 mEq/L
  LDH: 641 ± 281 IU/L
  Na: 141 ± 2.5 mEq/L
  TBIL: 0.6 ± 0.22 mg/dL
  TCHO: 130 ± 20 mg/dL
  TG: 112 ± 75 mg/dL
  TP: 4.1 ± 0.4 g/dL
  γ-GTP: 10 ± 0 IU/L
[2]; 5 MBq/kg i.v., day 14
  ALB: 2.2 ± 0.1 g/dL
  ALP: 171 ± 36 IU/L
  ALT: 16.5 ± 4.9 IU/L
  AMY: 2200 ± 428 IU/L
  AST: 45 ± 22.7 IU/L
  BUN: 27.6 ± 1.1 mg/dL
  CK: 162 ± 91 IU/L
  CRE: 0.2 ± 0 mg/dL
  GLU: 146 ± 39 mg/dL
  K: 5.1 ± 1.2 mEq/L
  LDH: 611 ± 24 IU/L
  Na: 143 ± 1.9 mEq/L
  TBIL: 0.88 ± 0.16 mg/dL
  TCHO: 151 ± 18 mg/dL
  TG: 75 ± 17 mg/dL
  TP: 4.1 ± 0.5 g/dL
  γ-GTP: 10 ± 0 IU/L
[2]; 12 MBq/kg i.v., day 1
  ALB: 2.3 ± 0.2 g/dL
  ALP: 193 ± 100 IU/L
  ALT: 29.0 ± 5.8 IU/L
  AMY: 2666 ± 537 IU/L
  AST: 37 ± 11.5 IU/L
  BUN: 20.7 ± 8.3 mg/dL
  CK: 192 ± 50 IU/L
  CRE: 0.2 ± 0 mg/dL
  GLU: 185 ± 42 mg/dL
  K: 4.5 ± 0.3 mEq/L
  LDH: 736 ± 363 IU/L
  Na: 142 ± 2.0 mEq/L
  TBIL: 0.53 ± 0.16 mg/dL
  TCHO: 128 ± 20 mg/dL
  TG: 119 ± 75 mg/dL
  TP: 4.1 ± 0.3 g/dL
  γ-GTP: 10 ± 0 IU/L
[2]; 12 MBq/kg i.v., day 14
  ALB: 2.1 ± 0.3 g/dL
  ALP: 110 ± 59 IU/L
  ALT: 21.5 ± 0.7 IU/L
  AMY: 2514 ± 549 IU/L
  AST: 28.8 ± 15.4 IU/L
  BUN: 30.6 ± 6.1 mg/dL
  CK: 144 ± 26 IU/L
  CRE: 0.22 ± 0.04 mg/dL
  GLU: 148 ± 24 mg/dL
  K: 5.4 ± 0.8 mEq/L
  LDH: 456 ± 72 IU/L
  Na: 143 ± 2.8 mEq/L
  TBIL: 0.68 ± 0.13 mg/dL
  TCHO: 138 ± 20 mg/dL
  TG: 87 ± 42 mg/dL
  TP: 3.9 ± 0.4 g/dL
  γ-GTP: 10 ± 0 IU/L
[2]; 35 MBq/kg i.v., day 1
  ALB: 2.2 ± 0.1 g/dL
  ALP: 208 ± 67 IU/L
  ALT: 53.0 ± 10.3 IU/L
  AMY: 2795 ± 363 IU/L
  BUN: 19.6 ± 6.2 mg/dL
  CK: 170 ± 65 IU/L
  CRE: 0.2 ± 0 mg/dL
  GLU: 201 ± 31 mg/dL
  K: 5.1 ± 0.5 mEq/L
  LDH: 638 ± 385 IU/L
  Na: 140 ± 1.4 mEq/L
  TBIL: 0.71 ± 0.48 mg/dL
  TCHO: 129 ± 21 mg/dL
  TG: 122 ± 79 mg/dL
  TP: 4.0 ± 0.3 g/dL
  γ-GTP: 10 ± 0 IU/L
[2]; 35 MBq/kg i.v., day 1, hemolysis was observed
  AST: 51.5 ± 36.2 IU/L
[2]; 35 MBq/kg i.v., day 14
  ALB: 2.3 ± 0.1 g/dL
  ALP: 133 ± 46 IU/L
  ALT: 13.0 ± 0.0 IU/L
  AMY: 2678 ± 388 IU/L
  AST: 28.4 ± 9.9 IU/L
  BUN: 23.4 ± 3.4 mg/dL
  CK: 141 ± 18 IU/L
  CRE: 0.2 ± 0 mg/dL
  GLU: 141 ± 21 mg/dL
  K: 4.7 ± 0.6 mEq/L
  LDH: 538 ± 129 IU/L
  Na: 143 ± 2.6 mEq/L
  TBIL: 0.68 ± 0.33 mg/dL
  TCHO: 144 ± 15 mg/dL
  TG: 67 ± 18 mg/dL
  TP: 4.1 ± 0.2 g/dL
  γ-GTP: 10 ± 0 IU/L
